Patent US20100081719A1 (priority 2006, published 2010)
Values joined by “and” are separate entries in the source; they are usually repeats but may differ in a detail not shown here. Identical values can stand only once. “Also recorded” adds a separate entry of the source. Counter-ions that a name gives are not always drawn.

What was measured:
[1] = tested on: patients who met the 1990 ACR criteria for fibromyalgia syndrome; experiment: Multi-center double-blind, randomized, placebo-controlled study of milnacipran for the treatment of fibromyalgia (Example 1); type: in vivo, human; conditions: for Responders for the treatment of the pain of fibromyalgia (% = m/n): observed cases (OC), intent-to-treat
Description: The primary outcome was a composite responder analysis assessing response rate at weeks 14 and 15, and the secondary analysis assessed response rate at weeks 26 and 27.
This was a multi-center, randomized, double-blinded, placebo-controlled three-arm study, which enrolled 888 patients who met the 1990 ACR criteria for fibromyalgia syndrome as well as the more detailed admission criteria outlined in the protocol.
Patients recorded baseline symptoms for the first two weeks after washing off anti-depressants, benzodiazepines, and certain other drugs that could potentially interfere with efficacy measurements.
All randomized medications (placebo and milnacipran) were administered in a split-dose (BID) fashion. The doses were administered in a dose escalation regimen as outlined below:
d. FMS Status Assessments: Patient pain 24 hour and 7 day recall VAS, the SF-36, Multiple Ability Self-report Questionnaire (MASQ, cognitive function), the Multidimensional Health Assessment Questionnaire (MDHAQ) and the Multidimensional Fatigue Inventory (MFI). Diary assessments include current pain (morning, random daily, and evening reports); daily recall pain (morning report); medications taken (evening report); overall pain past week (weekly report), overall fatigue in the last week (weekly report), and the extent that pain kept the patient from caring for themselves (weekly report).
The SF-36 is a multi-purpose, short-form health survey. It yields an 8-scale profile of functional health and well-being scores, psychometrically-based physical and mental health summary measures, and a preference-based health utility index (Ware J E, Snow K K, Kosinski M, Gandek B. SF-36® Health Survey Manual and Interpretation Guide. Boston, Mass.: New England Medical Center, The Health Institute, 1993). […] The SF-36 has proven useful in surveys of general and specific populations, comparing the relative burden of diseases, and in differentiating the health benefits produced by a wide range of different treatments.
The primary endpoint of this study was a composite responder analysis implementing analysis of three domains of interest, evaluated at […]. The domains measured were:
For the primary analysis, the pain domain score was determined by a calculation that compared the average of treatment weeks 14 and 15 to the two baseline weeks, and treatment weeks 26 and 27 vs. baseline for the secondary analysis. The last observation was carried forward if neither the week 14 nor week 15 (or week 26/27) patient self-reported pain score is available to compare to the baseline value.
A responder was defined as a subject who experienced a greater than 30% reduction in pain from baseline and improvement on the PGIC.
See Table 1 for a summary of the results in the Intent-to-Treat Population and Table 2 for a summary of the Last Observation Carried Forward (LOCF), Baseline Observation Carried Forward (BOCF) and study completer (OC) populations. LOCF is an analysis in which observations are carried forward to the last time point for patients who dropped out. The LOCF analysis treats the carried-forward data as observed data at the last time point. BOCF is an analysis that requires the patient remain active in the trial to be evaluated for response. If a patient withdraws from the trial for any reason they are classed as a non-responder irregardless of their pain and global scores at the time of withdrawal.

[2] = tested on: fibromyalgia patients; conditions: cited from earlier work
[3] = both milnacipran treatment groups (BID and QD), up to 200 mg/day

SMILES: CCN(CC)C(=O)C1(c2ccccc2)CC1CN (racemic) [milnacipran, Z-2-aminomethyl-1-phenyl-N, N-diethylcyclopropanecarboxamide hydrochloride]
- Treatment of fatigue associated with FMS (MFI total score / MFI physical fatigue), comparison with placebo ([1]; 100 mg/day vs placebo): superior to placebo
- SF-36 Physical Function ([1]; 100 mg/day, treatment week 3): 6.31
- SF-36 Physical Function ([1]; 100 mg/day, treatment week 7): 6.62
- SF-36 Physical Function ([1]; 100 mg/day, treatment week 11): 7.70
- SF-36 Physical Function ([1]; 100 mg/day, treatment week 15): 7.70
- SF-36 Physical Function ([1]; 100 mg/day, treatment week 19): 7.71
- SF-36 Physical Function ([1]; 100 mg/day, treatment week 23): 7.07
- SF-36 Physical Function ([1]; 100 mg/day, treatment week 27): 7.11
- Responders for the treatment of the pain of fibromyalgia (% = m/n) ([1]; 100 mg/day, treatment weeks 14-15 (3 month), hydrochloride): 53.33% and 53.3%
- Responders for the treatment of the pain of fibromyalgia (% = m/n) ([1]; 100 mg/day, treatment weeks 14-15 (3 month), listed as Milnacipran, hydrochloride): 72 (53.33) %
- Responders for the treatment of the pain of fibromyalgia (% = m/n) ([1]; 100 mg/day, treatment weeks 26-27 (6 month), hydrochloride): 49.59% and 49.6%
- Responders for the treatment of the pain of fibromyalgia (% = m/n) ([1]; 100 mg/day, treatment weeks 26-27 (6 month), listed as Milnacipran, hydrochloride): 60 (49.59) %
- Individual component responder rate, PGIC (LOCF) ([1]; 100 mg, 3 month): 54.0%
- Individual component responder rate, Pain (LOCF) ([1]; 100 mg, 3 month): 35.7%
- Pain composite responder rate, Primary Analysis (LOCF) ([1]; 100 mg, 3 month): 33.5%
- Pain composite responder rate, Sensitivity Analysis I (BOCF) ([1]; 100 mg, 3 month): 32.1%
- Pain composite responder rate, Sensitivity Analysis II ([1]; 100 mg, 3 month): 32.%
- Pain composite responder rate, Sensitivity Analysis III ([1]; 100 mg, 3 month): 32.1%
- Individual component responder rate, PGIC (LOCF) ([1]; 100 mg, 6 month): 49.6%
- Individual component responder rate, Pain (LOCF) ([1]; 100 mg, 6 month): 35.7%
- Pain composite responder rate, Primary Analysis (LOCF) ([1]; 100 mg, 6 month): 30.8%
- Pain composite responder rate, Sensitivity Analysis I (BOCF) ([1]; 100 mg, 6 month): 26.8%
- Pain composite responder rate, Sensitivity Analysis II ([1]; 100 mg, 6 month): 27.2%
- Pain composite responder rate, Sensitivity Analysis III ([1]; 100 mg, 6 month): 29.5%
- MFI (change from baseline) Physical fatigue (range 4 to 20) ([1]; 100 mg, treatment week 3): −0.99
- MFI (change from baseline) Total score (range 20 to 100) ([1]; 100 mg, treatment week 3): −3.68
- MFI (change from baseline) Physical fatigue (range 4 to 20) ([1]; 100 mg, treatment week 7): −1.23
- MFI (change from baseline) Total score (range 20 to 100) ([1]; 100 mg, treatment week 7): −4.32
- MFI (change from baseline) Physical fatigue (range 4 to 20) ([1]; 100 mg, treatment week 11): −1.46
- MFI (change from baseline) Total score (range 20 to 100) ([1]; 100 mg, treatment week 11): −5.16
- MFI (change from baseline) Physical fatigue (range 4 to 20) ([1]; 100 mg, treatment week 15): −1.29
- MFI (change from baseline) Total score (range 20 to 100) ([1]; 100 mg, treatment week 15): −5.15
- MFI (change from baseline) Physical fatigue (range 4 to 20) ([1]; 100 mg, treatment week 19): −1.34
- MFI (change from baseline) Total score (range 20 to 100) ([1]; 100 mg, treatment week 19): −4.97
- MFI (change from baseline) Physical fatigue (range 4 to 20) ([1]; 100 mg, treatment week 23): −1.23
- MFI (change from baseline) Total score (range 20 to 100) ([1]; 100 mg, treatment week 23): −4.44
- MFI (change from baseline) Physical fatigue (range 4 to 20) ([1]; 100 mg, treatment week 27): −1.37
- MFI (change from baseline) Total score (range 20 to 100) ([1]; 100 mg, treatment week 27): −5.00
- Treatment of fatigue associated with FMS (MFI), comparison of doses ([1]; 200 mg/day (high dose) vs 100 mg/day, hydrochloride): superior to milnacipran 100 mg/day; also recorded: significantly more effective treatment
- Treatment of fatigue associated with FMS (MFI total score / MFI physical fatigue), comparison with placebo ([1]; 200 mg/day vs placebo): superior to placebo
- SF-36 Physical Function ([1]; 200 mg/day, treatment week 3): 7.44
- SF-36 Physical Function ([1]; 200 mg/day, treatment week 7): 8.80
- SF-36 Physical Function ([1]; 200 mg/day, treatment week 11): 8.46
- SF-36 Physical Function ([1]; 200 mg/day, treatment week 15): 8.44
- SF-36 Physical Function ([1]; 200 mg/day, treatment week 19): 8.37
- SF-36 Physical Function ([1]; 200 mg/day, treatment week 23): 7.85
- SF-36 Physical Function ([1]; 200 mg/day, treatment week 27): 7.95
- Responders for the treatment of the pain of fibromyalgia (% = m/n) ([1]; 200 mg/day, treatment weeks 14-15 (3 month), hydrochloride): 55.0%
- Responders for the treatment of the pain of fibromyalgia (% = m/n) ([1]; 200 mg/day, treatment weeks 14-15 (3 month), listed as Milnacipran, hydrochloride): 143 (55.00) %
- Responders for the treatment of the pain of fibromyalgia (% = m/n) ([1]; 200 mg/day, treatment weeks 26-27 (6 month), hydrochloride): 51.74% and 51.7%
- Responders for the treatment of the pain of fibromyalgia (% = m/n) ([1]; 200 mg/day, treatment weeks 26-27 (6 month), listed as Milnacipran, hydrochloride): 119 (51.74) %
- Individual component responder rate, PGIC (LOCF) ([1]; 200 mg, 3 month): 50.6%
- Individual component responder rate, Pain (LOCF) ([1]; 200 mg, 3 month): 38.3%
- Pain composite responder rate, Primary Analysis (LOCF) ([1]; 200 mg, 3 month): 34.9%
- Pain composite responder rate, Sensitivity Analysis I (BOCF) ([1]; 200 mg, 3 month): 32.4%
- Pain composite responder rate, Sensitivity Analysis II ([1]; 200 mg, 3 month): 32.7%
- Pain composite responder rate, Sensitivity Analysis III ([1]; 200 mg, 3 month): 32.4%
- Individual component responder rate, PGIC (LOCF) ([1]; 200 mg, 6 month): 49.9%
- Individual component responder rate, Pain (LOCF) ([1]; 200 mg, 6 month): 35.4%
- Pain composite responder rate, Primary Analysis (LOCF) ([1]; 200 mg, 6 month): 32.2%
- Pain composite responder rate, Sensitivity Analysis I (BOCF) ([1]; 200 mg, 6 month): 27.0%
- Pain composite responder rate, Sensitivity Analysis II ([1]; 200 mg, 6 month): 28.6%
- Pain composite responder rate, Sensitivity Analysis III ([1]; 200 mg, 6 month): 29.9%
- MFI (change from baseline) Physical fatigue (range 4 to 20) ([1]; 200 mg, treatment week 3): −1.20
- MFI (change from baseline) Total score (range 20 to 100) ([1]; 200 mg, treatment week 3): −4.58
- MFI (change from baseline) Physical fatigue (range 4 to 20) ([1]; 200 mg, treatment week 7): −1.56
- MFI (change from baseline) Total score (range 20 to 100) ([1]; 200 mg, treatment week 7): −5.92
- MFI (change from baseline) Physical fatigue (range 4 to 20) ([1]; 200 mg, treatment week 11): −1.54
- MFI (change from baseline) Total score (range 20 to 100) ([1]; 200 mg, treatment week 11): −5.67
- MFI (change from baseline) Physical fatigue (range 4 to 20) ([1]; 200 mg, treatment week 15): −1.50
- MFI (change from baseline) Total score (range 20 to 100) ([1]; 200 mg, treatment week 15): −5.62
- MFI (change from baseline) Physical fatigue (range 4 to 20) ([1]; 200 mg, treatment week 19): −1.54
- MFI (change from baseline) Total score (range 20 to 100) ([1]; 200 mg, treatment week 19): −5.67
- MFI (change from baseline) Physical fatigue (range 4 to 20) ([1]; 200 mg, treatment week 23): −1.44
- MFI (change from baseline) Total score (range 20 to 100) ([1]; 200 mg, treatment week 23): −4.94
- MFI (change from baseline) Physical fatigue (range 4 to 20) ([1]; 200 mg, treatment week 27): −1.49
- MFI (change from baseline) Total score (range 20 to 100) ([1]; 200 mg, treatment week 27): −5.80
- Relief from fibromyalgia and its symptoms ([1]; continued administration (daily for at least three months)): long-term (at least three months) relief
- Long-term treatment of fibromyalgia and some of its symptoms, comparison of doses ([1]; low dose (100 mg/day) vs high dose (200 mg/day), continued administration): almost as effective as
- Therapy for the symptom of pain in FMS ([2]; 100 mg BID): effective acute (short-term) therapy
- PGIC: completers who reported an improvement in their overall status [2, 3]: over 70%
- PGIC: completers who reported worsening [2, 3]: 10%
- Deaths or serious adverse events associated with treatment ([2]; milnacipran-treated patients): no deaths or serious adverse events
- Patients in whom elevation in hepatic enzymes resulted in adverse events ([2]; milnacipran-treated patients): 2%
- Effect on fatigue, mood, global wellness, and function, BID vs QD dosing ([2]; twice-daily (BID) vs once-daily (QD) dosing): approximately equally effective
- Treating pain, BID vs QD dosing ([2]; twice-daily vs QD dosing): more effective in treating pain than QD dosing
